The values that follow come from patent US8546579B2, “Bicycloheteroaryl compounds as P2X7 modulators and uses thereof” (Evotec (US) Inc., priority 2006, dated 2013).

In this assay the target is T1, P2X7 receptor (Homo sapiens, UniProt Q99572).
T1 construct: host or cells: THP-1 cells differentiated with LPS and IFN-γ
T1 sequence (Q99572 1-595): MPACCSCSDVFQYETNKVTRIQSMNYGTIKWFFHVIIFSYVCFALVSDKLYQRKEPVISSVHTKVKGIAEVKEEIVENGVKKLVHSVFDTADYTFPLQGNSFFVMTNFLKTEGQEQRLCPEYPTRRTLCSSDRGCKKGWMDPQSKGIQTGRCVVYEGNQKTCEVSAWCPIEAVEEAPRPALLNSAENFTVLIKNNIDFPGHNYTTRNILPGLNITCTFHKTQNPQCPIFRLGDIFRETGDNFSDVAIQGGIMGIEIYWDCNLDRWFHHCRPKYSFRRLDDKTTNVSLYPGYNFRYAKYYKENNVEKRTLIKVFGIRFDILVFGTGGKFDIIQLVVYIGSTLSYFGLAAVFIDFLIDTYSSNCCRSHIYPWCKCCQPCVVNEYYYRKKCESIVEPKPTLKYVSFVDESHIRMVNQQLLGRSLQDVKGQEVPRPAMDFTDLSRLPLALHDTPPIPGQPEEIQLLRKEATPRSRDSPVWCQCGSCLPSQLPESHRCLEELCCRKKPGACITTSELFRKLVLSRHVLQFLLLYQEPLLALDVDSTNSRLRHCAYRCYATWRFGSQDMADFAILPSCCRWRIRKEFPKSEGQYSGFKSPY
Briefly: IL-1β release assay in differentiated THP-1 cells stimulated with BzATP (Example 9). The class given is cell-based. To be noted: for inhibition: THP-1, read-out: IL-1β % Inhib.; for inhibition at 0.3 µM: 0.3 μM compound, read-out: IL-1β % Inhib. @ 0.3 μM; for inhibition at 0.3 µM / inhibition at 0.1 µM: differentiated THP-1 cells, BzATP 250 uM; for IC50: THP-1 cells, BzATP-stimulated IL-1β release, four parameter logistic fit; for inhibition at 0.1 µM: 0.1 μM compound. Further details: inhibition: dose or concentration left out as unconfirmed. Put shortly:
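IC50 derived by four-parameter logistic fit of percent inhibition of IL-1β release, measured by ELISA after 45 min stimulation with 250 uM BzATP. Cells: THP-1 differentiated 16 h with 100 ng/mL LPS plus IFN-γ, LPS-primed 2 h, compound added 30 min beforehand.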

Where [1] appears, read: '*' class symbols, read-out: IL-1β % Inhib. (asterisk classes, 0.1 μM).

Each structure is given as a SMILES string. Read-outs that look alike come from different tables or passages of the source.

For the molecule `CN1CCC(Cn2ccc3c(NC(=O)c4ccc(-c5ccccc5)o4)cccc3c2=O)CC1` [Compound 1458], the inhibition was 0 to 25%.

As for `Cc1cc(C)c(CC(=O)Nc2cccc3c(=O)n(Cc4ccc(OC(F)(F)F)cc4)ccc23)c(C)c1` [Compound 1553], the inhibition was 0 to 25%.

With `Cc1ccc(C)c(C(=O)Nc2cccc3c(=O)n(CCN4CCOCC4)ccc23)c1` [Compound 1194], the inhibition at 0.3 µM ('+' class symbols) was 0 to 25%.

For the molecule `Cc1ccc(CCC(=O)Nc2cccc3c(=O)n(CC4CCOCC4)ccc23)c(C)c1` [Compound 1134], under “'+' class symbols”, the inhibition at 0.3 µM lay within 0 to 25%.

On to `Cc1ccc(CCC(=O)Nc2cccc3c(=O)n(CCN4CCOCC4)ccc23)c(C)c1` [Compound 1241], for which the inhibition at 0.3 µM (symbols + to ++++) is 0 to 25%.

Regarding `Cc1cc(C(=O)Nc2cccc3c(=O)n(CCN(C)C)ccc23)ccc1F` [Compound 1175], the inhibition at 0.3 µM ('+' class symbols) was in the range of 0 to 25%.

Regarding `COc1cc(OC)cc(C(=O)Nc2cccc3c(=O)n(CC4CCN(C)CC4)ccc23)c1` [Compound 1464], the inhibition lay within 0 to 25%.

As to `CN(C)CCn1ccc2c(NC(=O)Cc3ccc4c(c3)OCO4)cccc2c1=O` [Compound 1163], the inhibition at 0.3 µM ('+' class symbols) was 0 to 25%.

Take `Cc1cc(Cl)ccc1C(=O)Nc1cccc2c(=O)n(CC(C)(C)C)ccc12` [Compound 1269]: the inhibition at 0.3 µM (symbols + to ++++) lay within 0 to 25%.

`Cc1ccc(Cl)c(C(=O)Nc2cccc3c(=O)n(CC4CCOCC4)ccc23)c1` [Compound 1128]: under “'+' class symbols”, the inhibition at 0.3 µM is 0 to 25%.

Turning to `COc1ccc(C(=O)Nc2cccc3c(=O)n(Cc4cccnc4)ccc23)c(C)c1` [Compound 1073], the inhibition at 0.3 µM ('+' class symbols) lay within 0 to 25%.

In turn, `CCOc1ccccc1CC(=O)Nc1cccc2c(=O)n(Cc3cccnc3)ccc12` [Compound 1366] yielded an IC50 of 410 nM. Further, the inhibition at 0.3 µM (symbols + to ++++) was 26 to 50%.

Turning to `COc1ccc(CC(=O)Nc2cccc3c(=O)n(CCN(C)C)ccc23)cc1C` [Compound 1178], the inhibition at 0.3 µM ('+' class symbols) fell in the range of 0 to 25%.

Take `CC1CCC(C(=O)Nc2cccc3c(=O)n(CC(C)(C)C)ccc23)CC1` (stereo not drawn) [Compound 1047]: under setting [1], the inhibition at 0.1 µM lay in the range of 0 to 25%.

`Cc1ccc(CC(=O)Nc2cccc3c(=O)n(Cc4ccc(OC(F)(F)F)cc4)ccc23)cc1` [Compound 1585]: the inhibition lay within 0 to 25%.

As to `O=C(Cc1ccccc1F)Nc1cccc2c(=O)n(Cc3cccnc3)ccc12` [Compound 1449], the inhibition is 26 to 50%.

As for `COc1c(C)cc(C(=O)Nc2cccc3c(=O)n(CC4CCOCC4)ccc23)cc1C` [Compound 1112], the inhibition at 0.3 µM ('+' class symbols) was 0 to 25%.

Regarding `CC(C(=O)Nc1cccc2c(=O)n(CC(C)(C)C)ccc12)c1ccccc1` (stereo not drawn) [Compound 1247], for the setting “symbols * to ****, read-out: IL-1β % Inhib. (asterisk symbols: at 0.1 μM)”, the inhibition at 0.1 µM lay in the range of 0 to 25%.

As for `Cc1ccc(C(=O)Nc2cccc3c(=O)n(CC4CCOCC4)ccc23)c(C)c1` [Compound 1087], the inhibition at 0.3 µM ('+' class symbols) is 0 to 25%.

`Cc1c(Cl)cccc1C(=O)Nc1cccc2c(=O)n(CC3CCN(C)CC3)ccc12` [Compound 1481]: the inhibition is 0 to 25%.

As for `COCCn1ccc2c(NC(=O)c3cc(C)ccc3C)cccc2c1=O` [Compound 1427], the inhibition fell in the range of 26 to 50%.

In the case of `O=C(Nc1cccc2c(=O)n(CC3CCOCC3)ccc12)c1ccc(-c2ccccc2)o1` [Compound 1026], under setting [1], the inhibition at 0.1 µM is 26 to 50%.

As for `Cc1cccc(C(=O)Nc2cccc3c(=O)n(Cc4ccc(OC(F)(F)F)cc4)ccc23)c1` [Compound 1567], the inhibition lay within 0 to 25%.

Regarding `Cc1cc(C(=O)Nc2cccc3c(=O)n(CCCN4CCCC4=O)ccc23)ccc1F` [Compound 1536], the inhibition lay in the range of 0 to 25%.

Turning to `Cc1cccc(CCC(=O)Nc2cccc3c(=O)n(CCN(C)C)ccc23)c1` [Compound 1181], the inhibition at 0.3 µM ('+' class symbols) lay within 0 to 25%.

For the molecule `O=C(CCCc1ccccc1)Nc1cccc2c(=O)n(Cc3ccc(OC(F)(F)F)cc3)ccc12` [Compound 1586], the inhibition was 0 to 25%.

`CC(C)C(C(=O)Nc1cccc2c(=O)n(CCN(C)C)ccc12)c1ccc(Cl)cc1` (stereo not drawn) [Compound 1612] came in with an IC50 greater than 1000 nM. Moreover, under “"+" class symbols”, the inhibition at 0.3 µM was 0 to 25%.

As to `Cc1cc(C(=O)Nc2cccc3c(=O)n(CC(C)(C)C)ccc23)ccc1F` [Compound 1279], the inhibition at 0.3 µM (symbols + to ++++) was in the range of 0 to 25%.

For `Cc1cc(Cl)ccc1C(=O)Nc1cccc2c(=O)n(CC3CCN(C)CC3)ccc12` [Compound 1478], the inhibition fell in the range of 0 to 25%.

With `O=C(Nc1cccc2c(=O)n(CCCN3CCCC3=O)ccc12)c1cccc2c1OCCO2` [Compound 1533], the inhibition was 26 to 50%.

For `CN(C)CCn1ccc2c(NC(=O)Cc3ccc(Cl)cc3Cl)cccc2c1=O` [Compound 1387], half-maximal inhibition (IC50) was put at 146 nM. In addition, the inhibition at 0.3 µM (symbols + to ++++) was in the range of 51 to 75%.

On to `COc1cc(OC)cc(C(=O)Nc2cccc3c(=O)n(CCN4CCOCC4)ccc23)c1` [Compound 1196], for which the inhibition at 0.1 µM under setting [1] lay within 0 to 25%.

Regarding `COCCn1ccc2c(NC(=O)CCc3ccc(Cl)cc3)cccc2c1=O` [Compound 1335], the inhibition at 0.3 µM (symbols + to ++++) lay in the range of 0 to 25%.

The molecule `CN(C)CCn1ccc2c(NC(=O)CC3(O)CCCCCC3)cccc2c1=O` [Compound 1388] showed an IC50 greater than 1000 nM. The inhibition at 0.3 µM (symbols + to ++++) was in the range of 0 to 25%.

With `CCOc1ccccc1CC(=O)Nc1cccc2c(=O)n(Cc3ccc(OC(F)(F)F)cc3)ccc12` [Compound 1604], the inhibition at 0.1 µM ("*" class symbols, read-out: IL-1β % Inhib. ("*" symbols: at 0.1 μM)) lay within 0 to 25%.

In the case of `O=C(Nc1cccc2c(=O)n(CC3CCOCC3)ccc12)c1cc2cc(Cl)ccc2o1` [Compound 1131], the inhibition at 0.3 µM ('+' class symbols) was in the range of 0 to 25%.

For `CC(C)(C)Cn1ccc2c(NC(=O)Cc3csc4ccccc34)cccc2c1=O` [Compound 1274], the inhibition at 0.3 µM (symbols + to ++++) was 0 to 25%.

As for `Cc1ccc(C)c(C(=O)Nc2cccc3c(=O)n(C)ccc23)c1` [Compound 1420], the inhibition is 0 to 25%.

With `CC(C)(C)Cn1ccc2c(NC(=O)Cc3cccc4ccccc34)cccc2c1=O` [Compound 1250], under “symbols + to ++++”, the inhibition at 0.3 µM was in the range of 0 to 25%.

For the molecule `COc1ccc(CC(=O)Nc2cccc3c(=O)n(CC4CCN(C)CC4)ccc23)cc1OC` [Compound 1473], the inhibition is 0 to 25%.

Molecule `O=C(Cc1ccc(Cl)c(C(F)(F)F)c1)Nc1cccc2c(=O)n(Cc3ccccn3)ccc12` [Compound 1628, 2-(4-Chloro-3-trifluoromethyl-phenyl)-N-(1-oxo-2-pyridin-2-ylmethyl-1,2-dihydro-isoquinolin-5-yl)-acetamide] gave an IC50 of 55.9 nM. For the same molecule, the inhibition at 0.3 µM ("+" class symbols) is no less than 76%.

On to `COc1ccc(CC(=O)Nc2cccc3c(=O)n(CC(C)(C)C)ccc23)cc1OC` [Compound 1258], for which the inhibition at 0.3 µM (symbols + to ++++) is 0 to 25%.

With `CC(=O)OCCn1ccc2c(NC(=O)Cc3ccc(C(F)(F)F)cc3)cccc2c1=O` [Compound 1016], the IC50 is 338 nM. Also, where the note is “'+' class symbols”, the inhibition at 0.3 µM was no less than 76%.

Take `Cc1ccc(CCC(=O)Nc2cccc3c(=O)n(CC4CCN(C)CC4)ccc23)c(C)c1` [Compound 1491]: the inhibition was 0 to 25%.

As to `CCOc1ccc(CC(=O)Nc2cccc3c(=O)n(Cc4ccc(OC(F)(F)F)cc4)ccc23)cc1` [Compound 1584], the inhibition lay within 0 to 25%.

In the case of `COc1c(C)cc(C(=O)Nc2cccc3c(=O)n(CCCN4CCCC4=O)ccc23)cc1C` [Compound 1529], the inhibition fell in the range of 0 to 25%.

As for `COc1cccc(CC(=O)Nc2cccc3c(=O)n(Cc4cccnc4)ccc23)c1` [Compound 1353], the inhibition at 0.3 µM (symbols + to ++++) is 0 to 25%.

`Cc1ccc(Cl)cc1C(=O)Nc1cccc2c(=O)n(CC(C)(C)C)ccc12` [Compound 1283]: the inhibition at 0.3 µM (symbols + to ++++) was 26 to 50%.

On to `Cc1ccccc1CC(=O)Nc1cccc2c(=O)n(CCN3CCOCC3)ccc12` [Compound 1208], for which the inhibition at 0.3 µM (symbols + to ++++) lay within 0 to 25%.

Regarding `CCOc1ccccc1CC(=O)Nc1cccc2c(=O)n(CCCN3CCCC3=O)ccc12` [Compound 1538], the inhibition fell in the range of 26 to 50%.

Turning to `Cc1ccc(C)c(CC(=O)Nc2cccc3c(=O)n(CCCN4CCCC4=O)ccc23)c1` [Compound 1499], the inhibition fell in the range of 0 to 25%.

`CO[C@](C(=O)Nc1cccc2c(=O)n(CCN(C)C)ccc12)(c1ccccc1)C(F)(F)F` [Compound 1616] came in with an IC50 greater than 1000 nM. The inhibition at 0.3 µM ("+" class symbols) was 0 to 25%.

As to `Cc1ccc(Cl)c(C(=O)Nc2cccc3c(=O)n(CC4CCN(C)CC4)ccc23)c1` [Compound 1486], the inhibition is 0 to 25%.

The term IC50 denotes the concentration at which inhibition is half-maximal.
